Source: article PMC9101373, “Design of DNA Intercalators Based on 4-Carboranyl-1,8-Naphthalimides: Investigation of Their DNA-Binding Ability and Anticancer Activity” (International Journal of Molecular Sciences, 2022)

What was measured:
HepG2 cells = assay: In vitro cytotoxic activity, MTT assay; assay type: cell-based, human; conditions: 24 h treatment, read-out: IC50, compound concentration required to inhibit cell growth by 50%
Description: The obtained 1,8-naphthalimide–carborane conjugates were investigated for their in vitro antitumor activity by examining their cytotoxic effects using the MTT tetrazolium dye assay against the human cancer cell line HepG2 established from hepatocellular carcinoma. IC50 refers to the drug concentration (µM) required to inhibit cell growth by 50%.
The cytotoxic properties of the synthesized compounds were evaluated using the human hepatocellular carcinoma cell line HepG2 established from hepatocellular carcinoma. The HepG2 cell line was purchased from ECACC (Salisbury, UK). Cells were grown in EMEM medium (Corning®) supplemented with 10% heat-inactivated fetal bovine serum (FBS) (Corning®) and antibiotics (Corning®), at 37 °C in a 5% CO2 atmosphere. Upon reaching 80–90% confluency, cells were detached with the trypsin (Corning®) and transferred into 96-well microplates at a density of 12 × 10^3. After overnight incubation at 37 °C in a humidified atmosphere containing 5% CO2, the cells were treated for the next 24 h with compounds. The stock solution of each compound was prepared in DMSO at 10 mM. The cytotoxicity was evaluated by the MTT assay. […] Subsequently, the medium was aspirated and replaced with 3-(4,5-dimethylthiazol-2-yl)-2,5-diphenyltetrazolium bromide (MTT) dye solution (50 µL, 0.5 mg/mL). After 3 h incubation, the resulting MTT formazan crystals were dissolved in DMSO (100 µL). To ensure the complete dissolution of formazan, the plates were shaken on an orbital microplate shaker at 1000 rpm for 15 min (Thermoshaker NeoLab 7–0055, Bionovo, Legnica, Poland). The optical density of each well was then measured on a VICTOR Nivo multimode plate reader at a wavelength of 570 nm. Each experiment consisted of 6 replications of each concentration, and each experiment was repeated three times independently. The results were calculated as a percentage of control group viability. The IC50 values were determined using a non-linear regression from the plot of % viability against log dose of compounds by using GraphPad Prism 6.0 software (GraphPad, San Diego, CA, USA).

calf thymus DNA (ct-DNA) = assay: Melting temperature (Tm) measurements of ct-DNA, thermal denaturation; assay type: binding; conditions: for ΔTm ct-DNA: r = [compound]/[ct-DNA] = 0.3, pH 7.0, 20 mM cacodylate buffer, Tm of ct-DNA alone 74 °C; for effect on thermal stability of ct-DNA (in words): thermal melting experiments
Description: The melting temperature (Tm) of DNA is defined as the temperature at which 50% of the DNA is in form of single strands forming randomly coiled structures. DNA melting is measured by the absorbance of UV light (260 nm) by the DNA solution, where the amount of UV light absorbed is proportional to the fraction of non-bonded base pairs. The majority of DNA-binding small molecules known thus far stabilize duplex DNA against heat denaturation. A high, drug-induced increase in the Tm of DNA is generally viewed as an excellent criterion to select DNA ligands and is a common feature of several anticancer drugs such as intercalators (a significant increase in Tm = 3–8 °C is observed for strong intercalation) and alkylators. The reverse situation (destabilization of DNA to facilitate its denaturation) may be an attractive option to identify therapeutic agents acting on the DNA structure.
Our study conducted Tm measurement to estimate the impact of 1,8-naphthalimides bearing the carborane cluster on DNA stabilization (Table 1, Figures S249–S253, ESI).
The measurements were performed by adding aliquots of DMSO stock solution of the tested compounds to the buffer solution (pH 7.0, 20 mM, cacodylate buffer, DMSO content of the final solution = 0.24–0.36%). The Tm curves were collected at r = 0.3 (r = [compound]/[ct-DNA]) to assure the dominant binding mode. Thermal melting curves were determined by following the absorption change at 260 nm as a function of temperature by using a GBC Cintra10 UV–vis spectrometer (Dandenong, Australia) equipped with a GBC Thermocell Peltier Power Supply (Dandenong, Australia) using a 1 cm path length cell. The absorbance of the samples was monitored at 260 nm from 30 to 90 °C (95 °C for compounds 54–61) with a heating rate of 1 °C/min. Tm values are the midpoints or the transition curves determined from the maximum of the first derivative. The ΔTm values were calculated by subtracting the Tm of the free nucleic acid from the Tm of the sample. Every Tm value reported in this study was average at least three measurements. The error in Tm was 0.5 °C.

human topoisomerase IIα = target: T1, human topoisomerase IIα (Homo sapiens, UniProt P11388); assay: Human topoisomerase IIα relaxation assay; assay type: biochemical; conditions: for IC50: supercoiled pBR322, concentration range 0.1–100 µM, read-out: IC50, compound concentration required to inhibit the activity of this enzyme by 50%
T1 construct: purchased Inspiralis (Norwich, UK)
Description: Therefore, we subjected these compounds to further detailed analyses of inhibitory potential within the concentration range of 0.1–100 µM (Figure S301, ESI) to calculate IC50 values. IC50 refers to the compound concentration (µM) required to inhibit the activity of the topoisomerase enzyme by 50%.
The Human Topoisomerase II-alpha Relaxation Assay Kit was purchased from Inspiralis (Norwich, UK). The Topo IIα inhibition assay was performed as described by the manufacturer. […] Next, TopoIIα (1 U) was added, and the reaction mixture was incubated at 37 °C for an additional 45 min. The reaction was terminated by addition of the STEB buffer (40 % (w/v) sucrose, Tris-HCl (100 mM, pH 8), EDTA (1 mM), bromophenol blue (0.5 mg/mL)). The products were analyzed by electrophoresis using agarose gel (1%) in TAE buffer at 70 V for 2 h, followed by ethidium bromide staining. […] The percentage of Topo-II alpha activity inhibition was calculated by densitometric quantification (Quantity One software, Bio-Rad). The occurrence of a band representing supercoiled DNA on an agarose gel indicated the inhibition of enzyme activity.

T1 sequence (P11388 whole entry): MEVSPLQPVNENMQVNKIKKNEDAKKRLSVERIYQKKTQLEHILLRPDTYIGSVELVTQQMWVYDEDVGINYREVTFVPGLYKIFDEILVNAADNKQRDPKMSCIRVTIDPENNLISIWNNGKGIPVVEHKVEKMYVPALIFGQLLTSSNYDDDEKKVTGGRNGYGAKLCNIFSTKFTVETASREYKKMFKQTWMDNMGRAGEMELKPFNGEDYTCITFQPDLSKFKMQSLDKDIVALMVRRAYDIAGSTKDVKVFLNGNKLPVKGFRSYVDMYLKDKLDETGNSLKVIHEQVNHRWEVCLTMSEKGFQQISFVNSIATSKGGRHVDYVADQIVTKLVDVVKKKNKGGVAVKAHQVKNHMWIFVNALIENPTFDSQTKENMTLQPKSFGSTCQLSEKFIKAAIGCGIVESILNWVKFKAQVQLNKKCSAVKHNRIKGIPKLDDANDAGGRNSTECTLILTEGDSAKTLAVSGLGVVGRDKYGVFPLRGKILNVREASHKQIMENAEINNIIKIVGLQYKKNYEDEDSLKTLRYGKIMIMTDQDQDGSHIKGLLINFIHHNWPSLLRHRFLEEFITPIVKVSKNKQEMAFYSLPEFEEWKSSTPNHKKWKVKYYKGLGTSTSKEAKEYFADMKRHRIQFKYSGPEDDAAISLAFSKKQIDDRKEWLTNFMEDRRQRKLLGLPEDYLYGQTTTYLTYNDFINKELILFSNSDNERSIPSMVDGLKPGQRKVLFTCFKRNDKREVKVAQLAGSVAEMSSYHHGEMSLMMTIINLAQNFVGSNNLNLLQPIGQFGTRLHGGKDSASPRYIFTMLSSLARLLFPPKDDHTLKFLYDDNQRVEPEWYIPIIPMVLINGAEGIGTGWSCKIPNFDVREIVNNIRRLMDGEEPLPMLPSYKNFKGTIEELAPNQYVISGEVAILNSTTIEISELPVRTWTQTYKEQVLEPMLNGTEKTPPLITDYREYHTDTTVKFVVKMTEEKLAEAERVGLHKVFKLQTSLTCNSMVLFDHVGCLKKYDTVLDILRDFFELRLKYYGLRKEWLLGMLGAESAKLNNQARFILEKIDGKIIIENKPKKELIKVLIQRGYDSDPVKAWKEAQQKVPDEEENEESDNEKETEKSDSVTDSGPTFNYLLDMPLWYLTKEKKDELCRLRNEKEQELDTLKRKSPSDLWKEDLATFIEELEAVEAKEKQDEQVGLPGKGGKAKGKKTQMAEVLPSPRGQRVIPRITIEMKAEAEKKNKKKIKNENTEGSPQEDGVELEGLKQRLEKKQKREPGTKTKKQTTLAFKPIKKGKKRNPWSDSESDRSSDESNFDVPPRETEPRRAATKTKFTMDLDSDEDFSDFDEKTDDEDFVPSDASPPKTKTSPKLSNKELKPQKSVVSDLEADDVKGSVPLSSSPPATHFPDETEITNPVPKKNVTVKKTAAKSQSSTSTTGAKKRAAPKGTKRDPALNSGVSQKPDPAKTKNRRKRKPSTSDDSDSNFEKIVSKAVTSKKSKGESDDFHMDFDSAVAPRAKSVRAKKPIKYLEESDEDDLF

IC50 (human topoisomerase IIα) [µM]	fold less active than mitonafide (Topo IIα IC50) (human topoisomerase IIα) [fold]	fold less active than compound 8 (Topo IIα IC50) (human topoisomerase IIα) [fold]	Substance	IC50 (HepG2 cells) [µM]	ΔTm ct-DNA (calf thymus DNA (ct-DNA)) [°C]	effect on thermal stability of ct-DNA (in words) (calf thymus DNA (ct-DNA))
–	–	–	N-[2-(N-Pyrrolidinyl)ethyl]-4-[3-(1,2-dicarba-closo-dodecaborane-1-yl)propoxy]-1,8-naphthalimide [Compound 25]	15.2 ± 2.02	0.33	–
–	–	–	4-[3-(1,7-Dicarba-closo-dodecaborane-1-yl)propoxy]-1,8-naphthalic anhydride [Compound 23]	109 ± 3.78	−0.33	destabilization
7.72	–	–	N-[2-(Dimethylamino)ethyl]-4-[(2-(3-(1,2-dicarba-closo-dodecaborane-1-yl)propanamido)ethyl)amino]-1,8-naphthalimide [Compound 36]	6.03 ± 0.91	1.33	better DNA stabilization
–	–	–	N-[2-(N-Pyrrolidinyl)ethyl]-4-[(2-(3-(1,7-dicarba-closo-dodecaborane-1-yl)propanamido)ethyl)amino]-1,8-naphthalimide [Compound 39]	9.85 ± 0.59	1.00	–
61.6	12	–	4-{1-[3-(1,7-Dicarba-closo-dodecaborane-1-yl)propyl]-1H-1,2,3-triazol-4-yl}methoxy-1,8-naphthalic anhydride [Compound 15]	38.1 ± 2.85	0.00	–
0.58	–	–	N-[2-(Dimethylamino)ethyl]-4-{1-[3-(1,2-dicarba-closo-dodecaborane-1-yl)propyl]-1H-1,2,3-triazol-4-yl}-1,8-naphthalimide [Compound 8]	9.65 ± 1.02	0.33	–
–	–	–	N-[2-(N-Pyrrolidinyl)ethyl]-4-[(6-(3-(1,2-dicarba-closo-dodecaborane-1-yl)propanamido)hexyl)amino]-1,8-naphthalimide [Compound 43]	40 ± 3.89	1.00	–
–	–	–	N-[2-(N-Pyrrolidinyl)ethyl]-4-[3-(1,7-dicarba-closo-dodecaborane-1-yl)propoxy]-1,8-naphthalimide [Compound 27]	4.07 ± 1.19	0.33	–
–	–	–	N-[2-(Dimethylamino)ethyl]-4-[3-(1,2-dicarba-closo-dodecaborane-1-yl)propoxy]-1,8-naphthalimide [Compound 24]	11 ± 0.66	1.33	better DNA stabilization
–	–	–	N-[2-(Dimethylamino)ethyl]-4-{1-[3-(1,2-dicarba-closo-dodecaborane-1-yl)propyl]-1H-1,2,3-triazol-4-yl}methoxy-1,8-naphthalimide [Compound 16]	8.17 ± 3.72	2.00	better DNA stabilization
–	–	–	4-{1-[3-(1,2-Dicarba-closo-dodecaborane-1-yl)propyl]-1H-1,2,3-triazol-4-yl}methoxy-1,8-naphthalic anhydride [Compound 14]	34.1 ± 2.33	0.33	–
–	–	–	N-[2-(Dimethylamino)ethyl]-4-{1-[3-(1,7-dicarba-closo-dodecaborane-1-yl)propyl]-1H-1,2,3-triazol-4-yl}-1,8-naphthalimide [Compound 10]	5.35 ± 1.9	0.67	–
–	–	–	4-[3-(1,2-Dicarba-closo-dodecaborane-1-yl)propoxy]-1,8-naphthalic anhydride [Compound 22]	28.7 ± 3.84	−1.00	destabilization
–	–	–	N-[2-(Dimethylamino)ethyl]-4-[(6-(3-(1,2-dicarba-closo-dodecaborane-1-yl)propanamido)hexyl)amino]-1,8-naphthalimide [Compound 40]	12.2 ± 0.44	0.67	–
8.78	–	–	4-{1-[3-(1,7-Dicarba-closo-dodecaborane-1-yl)propyl]-1H-1,2,3-triazol-4-yl}-1,8-naphthalic anhydride [Compound 7]	136 ± 4.24	0.00	–
–	–	–	N-[2-(Dimethylamino)ethyl]-4-[3-(1,7-dicarba-closo-dodecaborane-1-yl)propoxy]-1,8-naphthalimide [Compound 26]	4.89 ± 2.59	1.33	better DNA stabilization
7.49	–	–	N-[2-(Dimethylamino)ethyl]-4-[(2-(3-(1,7-dicarba-closo-dodecaborane-1-yl)propanamido)ethyl)amino]-1,8-naphthalimide [Compound 37]	10.5 ± 0.53	2.00	better DNA stabilization
2.81	–	~5	N-[2-(N-Pyrrolidinyl)ethyl]-4-[(2-(3-(1,2-dicarba-closo-dodecaborane-1-yl)propanamido)ethyl)amino]-1,8-naphthalimide [Compound 38]	10.1 ± 1.85	1.00	–
–	–	–	N-[2-(Dimethylamino)ethyl]-4-[(6-(3-(1,7-dicarba-closo-dodecaborane-1-yl)propanamido)hexyl)amino]-1,8-naphthalimide [Compound 41]	11.9 ± 0.92	−1.33	destabilization
–	–	–	N-[2-(N-Pyrrolidinyl)ethyl]-4-[(6-(3-(1,2-dicarba-closo-dodecaborane-1-yl)propanamido)hexyl)amino]-1,8-naphthalimide [Compound 42]	21.1 ± 3.34	0.67	–
7.73	–	–	4-{1-[3-(1,2-Dicarba-closo-dodecaborane-1-yl)propyl]-1H-1,2,3-triazol-4-yl}-1,8-naphthalic anhydride [Compound 6]	71.2 ± 1.78	−0.33	destabilization
–	–	–	N-[2-(N-Pyrrolidinyl)ethyl]-4-{1-[3-(1,2-dicarba-closo-dodecaborane-1-yl)propyl]-1H-1,2,3-triazol-4-yl}-1,8-naphthalimide [Compound 9]	29.6 ± 1.89	0.67	–
–	–	–	N-[2-(Dimethylamino)ethyl]-4-{1-[3-(1,7-dicarba-closo-dodecaborane-1-yl)propyl]-1H-1,2,3-triazol-4-yl}methoxy-1,8-naphthalimide [Compound 18]	5.8 ± 0.23	0.37	–
